Assay results taken from the supplement of paper PMC10307832.

Assays:
Assay in all cases: relative viability (nuclei count vs DMSO), 5 days (fraction); higher = more cells survive
NCI-H2023 = test system: NCI-H2023
Outline: (§1)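 Values are medians from duplicate plates. Each reflects relative viability, defined as the nuclei count of treated wells over that of vehicle wells. Lung cancer cell lines in 1536-well plates were pin-tool dosed one day after seeding with one drug alone or with a fixed anchor-drug dose plus five library-drug doses (not always all listed) in √10 steps, then fixed, stained and imaged at 4× after 5 days.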

ChaGo-K-1 = test system: ChaGo-K-1
Outline: as §1

NCI-H1944 = test system: NCI-H1944
Outline: as §1

HCC-15 = test system: HCC-15
Outline: as §1

SK-LU-1 = test system: SK-LU-1
Outline: as §1

NCI-H838 = test system: NCI-H838
Outline: as §1

HOP-62 = test system: HOP-62
Outline: as §1

HCC-366 = test system: HCC-366
Outline: as §1

NCI-H2126 = test system: NCI-H2126
Outline: as §1

HARA = test system: HARA
Outline: as §1

NCI-H1993 = test system: NCI-H1993
Outline: as §1

SMILES: COc1cc2nccc(Oc3ccc(NC(=O)Nc4cc(C)on4)c(Cl)c3)c2cc1OC [Tivozanib] + CS(=O)(=O)N1CCN(Cc2cc3nc(-c4cccc5[nH]ncc45)nc(N4CCOCC4)c3s2)CC1 [Pictilisib] (partner 1 µM)
- relative viability (NCI-H2023; first compound 0.005 µM): 0.238
- relative viability (NCI-H2023; first compound 0.01581 µM): 0.228
- relative viability (NCI-H2023; first compound 0.05 µM): 0.249
- relative viability (NCI-H2023; first compound 0.1581 µM): 0.178
- relative viability (NCI-H2023; first compound 0.5 µM): 0.195
- relative viability (ChaGo-K-1; first compound 0.005 µM): 0.591
- relative viability (ChaGo-K-1; first compound 0.01581 µM): 0.779
- relative viability (ChaGo-K-1; first compound 0.05 µM): 0.559
- relative viability (ChaGo-K-1; first compound 0.1581 µM): 0.388
- relative viability (ChaGo-K-1; first compound 0.5 µM): 0.504
- relative viability (NCI-H1944; first compound 0.005 µM): 0.327
- relative viability (NCI-H1944; first compound 0.01581 µM): 0.365
- relative viability (NCI-H1944; first compound 0.05 µM): 0.356
- relative viability (NCI-H1944; first compound 0.1581 µM): 0.289
- relative viability (NCI-H1944; first compound 0.5 µM): 0.307
- relative viability (HCC-15; first compound 0.005 µM): 0.631
- relative viability (HCC-15; first compound 0.01581 µM): 0.641
- relative viability (HCC-15; first compound 0.05 µM): 0.719
- relative viability (HCC-15; first compound 0.1581 µM): 0.588
- relative viability (HCC-15; first compound 0.5 µM): 0.717
- relative viability (SK-LU-1; first compound 0.005 µM): 0.618
- relative viability (SK-LU-1; first compound 0.01581 µM): 0.465
- relative viability (SK-LU-1; first compound 0.05 µM): 0.483
- relative viability (SK-LU-1; first compound 0.1581 µM): 0.336
- relative viability (SK-LU-1; first compound 0.5 µM): 0.55
- relative viability (NCI-H838; first compound 0.005 µM): 0.443
- relative viability (NCI-H838; first compound 0.01581 µM): 0.498
- relative viability (NCI-H838; first compound 0.05 µM): 0.453
- relative viability (NCI-H838; first compound 0.5 µM): 0.501
- relative viability (HOP-62; first compound 0.005 µM): 0.579
- relative viability (HOP-62; first compound 0.01581 µM): 0.744
- relative viability (HOP-62; first compound 0.05 µM): 0.708
- relative viability (HOP-62; first compound 0.1581 µM): 0.368
- relative viability (HOP-62; first compound 0.5 µM): 0.649
- relative viability (HCC-366; first compound 0.005 µM): 0.126
- relative viability (HCC-366; first compound 0.01581 µM): 0.179
- relative viability (HCC-366; first compound 0.05 µM): 0.103
- relative viability (HCC-366; first compound 0.1581 µM): 0.189
- relative viability (HCC-366; first compound 0.5 µM): 0.175
- relative viability (NCI-H2126; first compound 0.005 µM): 0.41
- relative viability (NCI-H2126; first compound 0.01581 µM): 0.533
- relative viability (NCI-H2126; first compound 0.05 µM): 0.489
- relative viability (NCI-H2126; first compound 0.1581 µM): 0.36
- relative viability (NCI-H2126; first compound 0.5 µM): 0.469
- relative viability (HARA; first compound 0.005 µM): 0.395
- relative viability (HARA; first compound 0.01581 µM): 0.312
- relative viability (HARA; first compound 0.05 µM): 0.485
- relative viability (HARA; first compound 0.1581 µM): 0.309
- relative viability (HARA; first compound 0.5 µM): 0.603
- relative viability (NCI-H1993; first compound 0.005 µM): 0.845
- relative viability (NCI-H1993; first compound 0.01581 µM): 0.782
- relative viability (NCI-H1993; first compound 0.05 µM): 0.875
- relative viability (NCI-H1993; first compound 0.1581 µM): 0.709
- relative viability (NCI-H1993; first compound 0.5 µM): 0.737
